Patent US20200352912A1, “ANTIMICROBIAL COMPOSITIONS AND METHODS OF USING THE SAME” (The Board Of Supervisors Of Louisiana State University And …, priority 2018, published 2020)
Entries after “also recorded” stand apart in the source; their conditions may differ.

What was measured:
[1] = tested on: C. albicans and S. aureus; assay: mouse C. albicans-S. aureus polymicrobial intra-abdominal infection; type: in vivo, mice
Protocol: Effect of inhibition of EP4 receptor signaling on survival. Mice received either vehicle or EP4 receptor antagonist at a dose of 10 mg/kg by i.p. injection as indicated in Materials and Methods. Mortality was assessed using Kaplan Meier test (***P<0.001; n=20/group) compared to control groups. Data shown are representative of three replicate experiments.
The mouse peritonitis/intra-abdominal model was performed as previously described (8). In brief, for MRSA peritonitis, mice were injected intraperitoneally (i.p.) with 4×10^6 CFU or 5×10^6 CFU or 2×10^7 CFU of S. aureus in 0.2 ml of PBS containing 3% hog gastric mucin type III (Sigma Aldrich). Mice injected i.p. with 0.2 ml of mucin/PBS served as a negative infection control. For the intra-abdominal infection with C. albicans and S. aureus, mice were injected i.p. with 7×10^6 CFU of C. albicans and 8×10^7 CFU of S. aureus (8.7×10^7 CFU total) in 0.2 ml of PBS. After inoculation, mice were observed over 10 days for signs of morbidity (hunched posture, inactivity, lethargy, and ruffled fur) and mortality. […] In the MRSA peritonitis experiments, mice were sacrificed at 24 or 48 h post-inoculation to assess microbial burden. Peritoneal cavities were lavaged by injection of 2 ml of sterile PBS followed by gentle massaging of the peritoneal cavity. Peritoneal lavage fluid then was removed using a pipette inserted into a small incision in the abdominal cavity. Spleens were removed, weighed, and mechanically homogenized prior to CFU analysis. Microbial burdens in the peritoneal lavage fluid and spleen were enumerated as described above.
Each inhibitor was prepared fresh as a concentrated stock (20-25 mg/ml) in DMSO and diluted to a working concentration of […] in sterile PBS (final DMSO concentration, 2.3%). A sham treatment containing only 2.3% DMSO in PBS was also prepared. For the MRSA peritonitis study, the EP4 receptor antagonist was administered 2 h after S. aureus inoculation and once daily thereafter until day 4 post inoculation. For the IAI co-infection study, COX inhibitor or vehicle control was administered 4 h prior to and 4 and 8 h after inoculation with C. albicans and S. aureus while the EP receptor antagonists were administered daily starting 1 day prior to and 5 days after infection. All other procedures were performed as described above. Control groups received the vehicle at the same dose interval.
In a final set of experiments, we evaluated the ability of L-161, 982 to reduce lethality in co-infected mice. Mice co-inoculated with the standard 7×106 C. albicans CFU and 8×107 S. aureus CFU (8.7×10^7 CFU total) were treated with L-161, 982 (10 mg/kg) 2 h post infection and once daily afterwards until day 5. […]

S. aureus NRS383 = assay: planktonic antimicrobial assay (OD600 growth); type: cell-based, Staphylococcus aureus; settings: 100 μg/ml (inhibitor-specific concentrations b175), OD600 up to 24 h
Protocol: Effect of COX enzyme inhibitors or PGE2 EP receptor antagonists on microbial growth. The antimicrobial activity of selective COX enzyme inhibitor or PGE2 EP receptor antagonist on the growth of C. albicans DAY185 (A), S. aureus NRS383 (B) and MRSA and MSSA clinical isolates (C). Growth of C. albicans and S. aureus was monitored for up to 24 h in medium alone or supplemented with DMSO or EP receptor antagonists or COX enzyme inhibitor at physiologically relevant concentrations. Data shown are representative of three independent experiments.
C. albicans and S. aureus were grown as described above. […] Cells were grown with shaking as described above, and 1 ml aliquots were removed each hour in duplicate and optical density at 600 nm measured (OD600) by spectrophotometer (Biomate 3S, Thermo Scientific).

[2] = tested on: C. albicans and S. aureus; settings: mouse, in vivo; cited from earlier work
[3] = tested on: S. aureus in polymicrobial biofilms; settings: 1,600 μg/ml; cited from earlier work

## CC(C(=O)Nc1cc(C#N)ccc1CCCC(=O)O)c1ccc(F)c2ccccc12 (centres unmarked) [ONO AE3 208]
[1]; 10 mg/kg i.p.
  effect on survival: no effect; also recorded: did not enhance survival
[1]; mouse, in vivo
  antimicrobial effect on S. aureus in vivo: no antimicrobial effect
S. aureus NRS383
  growth of S. aureus: no antimicrobial effect

## COc1ccc2c(c1)c(CC(=O)O)c(C)n2C(=O)c1ccc(Cl)cc1 [indomethacin]
[2]
  mortality of co-infected mice: prevented mortality

## CN[C@H](CC(C)C)C(=O)N[C@H]1C(=O)N[C@@H](CC(N)=O)C(=O)N[C@H]2C(=O)N[C@H]3C(=O)N[C@H](C(=O)N[C@H](C(=O)O)c4cc(O)cc(O)c4-c4cc3ccc4O)[C@H](O)c3ccc(c(Cl)c3)Oc3cc2cc(c3O[C@@H]2O[C@H](CO)[C@@H](O)[C@H](O)[C@H]2O[C@H]2C[C@](C)(N)[C@H](O)[C@H](C)O2)Oc2ccc(cc2Cl)[C@H]1O [vancomycin]
[3]
  viability of S. aureus in polymicrobial biofilms: no effect on viability
